Laboratory results as given in patent publication US20060084672A1, “Method for modification of y-secretase activity through inhibition of Fkbp13” (The Hospital for Sick Children, priority 2004, published 2006).

How the values were obtained:
γ-secretase = biological target: T1, γ-secretase (Homo sapiens, UniProt P49768); experiment: Aβ1-40 sandwich ELISA in Cos-7 cells stably expressing APP C99 and transfected with human PS1; format: cell-based
T1 construct: expressed in transfected cells; host or cells: Cos-7 stably expressing APP C99 (pCEP4-SPA4CT-DA)
Protocol: To determine the effect of drug treatment on Psn stability, HEK293 cells were transiently co-transfected with psn and Fkbp13 constructs. 24 hours after transfection, 100 mm dishes of transfected HEK293 cells were treated with 5 μM FK506 (CALBIOCHEM), 1 μM Rapamycin (CALBIOCHEM) or DMSO (control), harvested at various time points and analyzed by Western blotting techniques. To measure Aβ40, Cos-7 cells were transfected with pCEP4-SPA4CT-DA (gift from Dr. Gunter Merdes, ZMBH, University of Heidelberg) that contains an APP^C99 cDNA using lipofectin (Gibco) according to the manufacturers protocol. Cells stably expressing APP^C99 were selected using 300 μg/ml hygromycin and maintained in DMEM medium containing 10% FBS, […] penicillin-streptomycin and 100 μg/ml hygromycin. These cells were then transiently transfected with plasmids carrying human PS1. 48 hours after transfection, cells were starved in serum-free DMEM medium for 2 hours, then treated with 1 μm of the γ-secretase inhibitor DAPT or 0.5 μm of the Fkbp13 inhibitor rapamycin or FK506 respectively, in DMEM medium containing 5% FBS o/n. Cells then were harvested and lysed and the conditioned lysates were used to measure Aβ1-40 by sandwich ELISA as described in (Yan et al. Nature 402:533-537 1999)using 6E10 (Senetek) as the capture antibody and the polyclonal Pan-β-Amyloid (Oncogene) for detection of Aβ40. […]

PEN-2 = PEN-2 protein levels in transfected Drosophilia S2 cells (Western analysis); format: cell-based; details: concentration not given
From the text: (§1) In order to determine if Fkbp13 can also affect the stability of other components of the γ-secretase complex, Drosophilia S2 cells were transfected with tagged constructs expressing APH-1, PEN-2 or Nct and then examined for the effects of FK506 on protein levels.
(§2) cDNA's encoding APH-1, PEN-2 and Nct were subcloned into pAc5.1/V5-HisA or pIB/V5-His TOPO and transiently transfected into Drosophilia S2 cells using cellfectin according to the manufacturer's protocol (Invitrogen). Cells were collected between 24-48 hours for Western analysis using the following antibodies: monoclonal anti-V5 1:5000(Invitrogen), monoclonal anti-HA 1:2000(Roche), monoclonal anti-FLAG M2 1:5000(Sigma) and monoclonal anti-β-tubulin 1:1000 (DSHB).
(§3) In contrast, no effect was observed on the levels of either APH-1 or Nct (FIG. 4A). […] Drosophilia S2 cells were transfected with tagged versions of APH-1, PEN-2 or Nct and treated with 50 μM FK506 over a 24 hour period. No effect was observed on the levels of APH-1, Nct or β-tubulin control. Similarly, no effect was observed using either DMSO (control) or the known γ-secretase inhibitor, DAPT.

Nct = Nct protein levels in transfected Drosophilia S2 cells (Western analysis); format: cell-based; details: 50 μM FK506 over a 24 hour period
From the text: as §1, §2, §3

Actin = Actin levels in HEK293 cells transfected with Fkbp13 and Psn (Western blot); format: cell-based; details: treated for 1-24 hours
Protocol: Protein quantification, SDS-polyacrylamide gel electrophoresis (5-12% or 8-12% gradient gel, or 10% SDS-PAGE) and immunoblot analysis were carried out as described previously (Guo et al. Journal of Cell Science 113:3499-3508 2000) using the monoclonal antibodies, anti-β-actin and anti-FLAG (Sigma), anti-GFP (Santa Cruz Biotechnology), anti-HA (12c-A5, Roche), anti-β-tubulin (Developmental Studies Hybridoma Bank), anti-Xpress and anti-V5 (Invitrogen) and a polyclonal anti-GFP (Santa Cruz Biotechnology). Microsomal fractions were prepared from cells using a detergent-free protocol. All steps were performed at <4° C. Cell pellets were resuspended in 300 μl hypo-osmotic buffer (20 mM Tris/HCl, pH 7.5) supplemented with complete protease inhibitor (Roche), homogenized through a 27G needle and sonicated. Nuclei were removed by centrifugation (1200 g, 25 minutes) and the post-nuclear supernatant (containing membrane and soluble fractions) was denatured for 5 minutes at 100° C. in SDS-PAGE sample buffer. […]
(§4) To determine the effect of drug treatment on Psn stability, HEK293 cells were transiently co-transfected with psn and Fkbp13 constructs. 24 hours after transfection, 100 mm dishes of transfected HEK293 cells were treated with 5 μM FK506 (CALBIOCHEM), 1 μM Rapamycin (CALBIOCHEM) or DMSO (control), harvested at various time points and analyzed by Western blotting techniques. […]

human PS-1 = experiment: 35S-methionine pulse-chase of PS1 stability in Cos-7 cells; format: cell-based; details: Cos-7 cells transfected with human PS-1, in the presence of FK506; without FK506 3.5±0.2 h
Protocol: In order to confirm that FK506 was affecting the stability of PS1 a pulse-chase of ^35S-methionine was performed and the amount of PS1 remaining after various chase periods was measured by immunoprecipitation and autoradiography.
Pulse-chase labeling of cells was performed using TRAN ^35S-LABEL™ Metabolic Labeling Reagent (ICN). Cos-7 cells were transiently transfected with human PS-1. After 48 hours, cells were washed with PBS and then starved in the presence of methionine and cysteine free DMEM (Invitrogen) containing 10% dialyzed fetal bovine serum for 1 hour at 37° C. Cells were then incubated with [^35S] methionine (400 μCi/ml) in the presence or absence of FK506 for an additional 2 hours. The cells were then washed with 10 ml of PBS twice and chased with DMEM containing the indicated reagents for various times. Cells were then harvested and lysed in IP buffer and TCA precipitated to quantify the incorporation of ^35S-methionine. Equal amounts of microsomal fractions from radioactive cells were then incubated with 2 μg of anti-human PS1. Subsequently, […] of protein A agarose beads (Invitrogen) were added to the IP reactions and rotated for 2 hours at 4° C. The beads were then washed 4 times with IP washing buffer, denatured in 2× SDS-PAGE sample buffer and run on 12% SDS-PAGE.

Fkbp13 = Fkbp13 levels in HEK293 cells transfected with Fkbp13 and Psn (Western blot); format: cell-based, Drosophila; details: treated for 1-24 hours
Protocol: HEK293 cells were maintained at 37° C. and 5% CO2 in α-minimal essential medium (Hyclone) supplemented with 10% heat-inactivated fetal bovine serum and plated 24 hours before transfection. For each 10 cm tissue culture dish, 12-16 μg cDNA was used. HEK293 cells were transiently transfected with plasmids encoding Drosophila Rya-r44f, Fkbp13, or psn using calcium phosphate precipitation. The cells were harvested 40-42 hours afer transfection.
Protein quantification, SDS-polyacrylamide gel electrophoresis (5-12% or 8-12% gradient gel, or 10% SDS-PAGE) and immunoblot analysis were carried out as described previously (Guo et al. Journal of Cell Science 113:3499-3508 2000) using the monoclonal antibodies, anti-β-actin and anti-FLAG (Sigma), anti-GFP (Santa Cruz Biotechnology), anti-HA (12c-A5, Roche), anti-β-tubulin (Developmental Studies Hybridoma Bank), anti-Xpress and anti-V5 (Invitrogen) and a polyclonal anti-GFP (Santa Cruz Biotechnology). Microsomal fractions were prepared from cells using a detergent-free protocol. […]
as §4

APH-1 = APH-1 protein levels in transfected Drosophilia S2 cells (Western analysis); format: cell-based; details: 50 μM FK506 over a 24 hour period
From the text: as §1, §2, §3

Row | Compound | β-amyloid peptide production (in words) (γ-secretase; APP C99 + human PS1, 1 μm DAPT or 0.5 μm rapamycin o/n) | effect of DAPT on protein levels (PEN-2) in S2 cells (PEN-2) | levels of Nct (Nct) | levels of Actin (Actin) | PS1 half-life (human PS-1) | levels of Fkbp13 (Fkbp13) | levels of APH-1 (APH-1) | decrease in the levels of β-amyloid peptide (γ-secretase; APP C99 + human PS1, 0.5 μm FK506 o/n, vs untreated or DMSO treated controls)
1 | C[C@H](NC(=O)Cc1cc(F)cc(F)c1)C(=O)N[C@H](C(=O)OC(C)(C)C)c1ccccc1 [DAPT] | comparable | no effect | – | – | – | – | – | –
2 | C=CC[C@@H]1/C=C(\C)C[C@H](C)C[C@H](OC)[C@H]2O[C@@](O)(C(=O)C(=O)N3CCCC[C@H]3C(=O)O[C@H](/C(C)=C/[C@@H]3CC[C@@H](O)[C@H](OC)C3)[C@H](C)[C@@H](O)CC1=O)[C@H](C)C[C@@H]2OC [FK506] | – | – | no effect | no effect | 1.25 ± 0.3 h | no effect | no effect | 80%
